Starred links: 1 amine or outer side, 2 acyl side, 3 side chain; linkers in the order of their positions; H or OH if unused. Positions of bridges follow the written chain, without caps; N, C: chain ends. Non-standard residues stand in square brackets, D forms with d. Residues, ends and D or L forms follow the SMILES beside them. *: point of attachment. hPhe(3-Cl-4-CF3) = N[C@@H](CCc1ccc(C(F)(F)F)c(Cl)c1)C(=O)O; X88 = O=C([C@H](CCc1ccc(OC(F)(F)F)c(Cl)c1)N[*:1])[*:2]; X60 = CC(C)Oc1cc(CC[C@H](N[*:1])C(=O)[*:2])cc(Cl)c1Cl; X69 = O=C([C@@H]1C[C@H](n2ccnn2)CN1[*:1])[*:2]; NMeAla(cPent) = CN[C@@H](CC1CCCC1)C(=O)O; NMeGly(cPent) = CN[C@H](C(=O)O)C1CCCC1; NMeGly(cBu) = CN[C@H](C(=O)O)C1CCC1; NMeCha = CN[C@@H](CC1CCCCC1)C(=O)O; Hyp = O=C(O)[C@@H]1C[C@@H](O)CN1; NMeChg = CN[C@H](C(=O)O)C1CCCCC1; NMeI = CC[C@H](C)[C@H](NC)C(=O)O; NMeD = CN[C@@H](CC(=O)O)C(=O)O; NMeL = CN[C@@H](CC(C)C)C(=O)O; dNMeAbu = CC[C@@H](NC)C(=O)O; NMeV = CN[C@H](C(=O)O)C(C)C; d(β3hA) = C[C@@H](N)CC(=O)O; NMeS = CN[C@@H](CO)C(=O)O; NMeA = CN[C@@H](C)C(=O)O; Piperidide = C1CCN(*)CC1; Ac5c = NC1(C(=O)O)CCCC1; Aze = O=C(O)[C@@H]1CCN1; Ethyl(2,2-F2) = FC(F)C*; Sar = CNCC(=O)O; Propyl = CCC* Some results are limits rather than exact numbers.

By IC50 is commonly meant the concentration that inhibits the measured activity by half. Lower therefore signals higher potency.

In this test the test system is Human pancreatic cancer cell line AsPC-1. Kind of test: Measurement of AsPC-1 cell growth inhibition (AsPC-1 CGI). In kind it is cell-based. Conditions: 96 h. Put shortly: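 AsPC-1 cells in 15% FBS RPMI-1640 were exposed to test compound for 96 hours at 37° C, with CellTiter-Glo as endpoint.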
The compound `CC[C@H](C)[C@@H]1NC(=O)[C@H](CC(C)C)N(C)C(=O)C[C@@H](C(=O)N2CCCCC2)N(C)C(=O)[C@H](C(C)C)N(C)C(=O)C2(CCCC2)NC(=O)[C@@H]2C[C@H](n3ccnn3)CN2C(=O)[C@H](CCc2ccc(C(F)(F)F)c(Cl)c2)NC(=O)CN(C)C(=O)[C@H](CC2CCCC2)N(C)C(=O)CN(C)C(=O)CN(C)C1=O` [Compound 2115, (3S,9S,18S,21S,25S,28S,34S,36S)-3-[2-[3-chloro-4-(trifluoromethyl)phenyl]ethyl]-9-(cyclopentylmethyl)-21-isobutyl-28-isopropyl-7,10,13,16,22,26,29-heptamethyl-18-[(1S)-1-methylpropyl]-25-(piperidine-1-carbonyl)-36-(triazol-1-yl)spiro[1,4,7,10,13,16,19,22,26,29,32-undecazabicyclo[32.3.0]heptatriacontane-31,1′-cyclopentane]-2,5,8,11,14,17,20,23,27,30,33-undecone] ([NMeL]I[Sar][Sar][NMeAla(cPent)][Sar][hPhe(3-Cl-4-CF3)][X69][Ac5c][NMeV][NMeD]-Piperidide; lactam N-11) registered an IC50 of more than 500 nM.

As to `CC[C@H](C)[C@@H]1NC(=O)[C@H](CC(C)C)NC(=O)C[C@@H](C(=O)N2CCCCC2)N(C)C(=O)[C@H](C2CCCCC2)N(C)C(=O)C2(CCCC2)NC(=O)[C@@H]2CCCN2C(=O)[C@H](CCc2ccc(C(F)(F)F)c(Cl)c2)NC(=O)CN(C)C(=O)[C@H](CC2CCCCC2)N(C)C(=O)CN(C)C(=O)CN(C)C1=O` [Compound 356] (LI[Sar][Sar][NMeCha][Sar][hPhe(3-Cl-4-CF3)]P[Ac5c][NMeChg][NMeD]-Piperidide; lactam N-11), the IC50 lay in the range of 100 to 500 nM.

`CC[C@H](C)[C@@H]1NC(=O)[C@H](C)N(C)C(=O)C[C@@H](C(=O)N2CCCCC2)N(C)C(=O)[C@H](C(C)C)N(C)C(=O)C2(CCCC2)NC(=O)[C@@H]2CCCN2C(=O)[C@H](CCc2cc(Cl)c(Cl)c(OC(C)C)c2)NC(=O)CN(C)C(=O)[C@H](CC2CCCCC2)N(C)C(=O)CN(C)C(=O)CN(C)C1=O` [Compound 2079] ([NMeA]I[Sar][Sar][NMeCha][Sar][X60]P[Ac5c][NMeV][NMeD]-Piperidide; lactam N-11; C-terminus assumed) returned an IC50 of more than 500 nM. Turning to `CC[C@@H]1C(=O)NC2(CCCC2)C(=O)N(C)[C@@H](C2CCCC2)C(=O)N(C)[C@H](C(=O)N2CCCCC2)CC(=O)N(C)[C@@H](CC(C)C)C(=O)N[C@@H]([C@@H](C)CC)C(=O)N(C)CC(=O)N(C)CC(=O)N(C)[C@@H](CC2CCCCC2)C(=O)N(C)CC(=O)N[C@@H](CCc2ccc(C(F)(F)F)c(Cl)c2)C(=O)N1C` [Compound 1439] ([NMeL]I[Sar][Sar][NMeCha][Sar][hPhe(3-Cl-4-CF3)][dNMeAbu][Ac5c][NMeGly(cPent)][NMeD]-Piperidide; lactam N-11), the IC50 was 100 to 500 nM. In the case of `CC[C@H](C)[C@@H]1NC(=O)[C@H](CC(C)C)N(C)C(=O)C[C@@H](C(=O)N2CCCCC2)N(C)C(=O)[C@H](C2CCC2)N(C)C(=O)C2(CCCC2)NC(=O)[C@@H]2CCCN2C(=O)[C@H](CCc2ccc(C(F)(F)F)c(Cl)c2)NC(=O)CN(C)C(=O)[C@H](CC2CCCCC2)N(C)C(=O)[C@@H]2CCN2C(=O)[C@H](C)N(C)C1=O` [Compound 672] ([NMeL]I[NMeA][Aze][NMeCha][Sar][hPhe(3-Cl-4-CF3)]P[Ac5c][NMeGly(cBu)][NMeD]-Piperidide; lactam N-11), the IC50 lay within 100 to 500 nM. The same measure for `CC[C@H](C)[C@@H]1NC(=O)[C@H](C2CCCCC2)N(C)C(=O)C[C@@H](C)NC(=O)[C@H](C(C)C)N(C)C(=O)C2(CCCC2)NC(=O)[C@@H]2CCCN2C(=O)[C@H](CCc2ccc(C(F)(F)F)c(Cl)c2)NC(=O)CN(C)C(=O)[C@H](CC2CCCCC2)N(C)C(=O)[C@@H]2CCN2C(=O)[C@H](C)N(C)C1=O` [Compound 873] (cyclo([Ac5c][NMeV][d(β3hA)][NMeChg]I[NMeA][Aze][NMeCha][Sar][hPhe(3-Cl-4-CF3)]P)): 100 to 500 nM. `CO[C@H](C)[C@@H]1NC(=O)[C@H](CC(C)C)N(C)C(=O)C[C@@H](C(=O)N2CCCCC2)N(C)C(=O)[C@H](C(C)C)N(C)C(=O)C2(CCCC2)NC(=O)[C@@H]2CCCN2C(=O)[C@H](CCc2ccc(C(F)(F)F)c(Cl)c2)NC(=O)CN(C)C(=O)[C@H](CC2CCCCC2)N(C)C(=O)[C@@H]2CCN2C(=O)[C@H](C)N(C)C1=O` [Compound 497] ([NMeL]T(Me)[NMeA][Aze][NMeCha][Sar][hPhe(3-Cl-4-CF3)]P[Ac5c][NMeV][NMeD]-Piperidide; lactam N-11) had an IC50 of 100 to 500 nM. The figure for `CCCOC[C@H]1C(=O)N(C)CC(=O)N[C@@H](CCc2ccc(C(F)(F)F)c(Cl)c2)C(=O)N2CCC[C@H]2C(=O)NC2(CCCC2)C(=O)N(C)[C@@H](C2CCCCC2)C(=O)N(C)[C@H](C(=O)N2CCCCC2)CC(=O)N(C)[C@@H](CC(C)C)C(=O)N[C@@H]([C@@H](C)CC)C(=O)N(C)CC(=O)N(C)CC(=O)N1C` [Compound 1805, (3S,9S,18S,21S,25S,28S,34S)-3-[2-[3-chloro-4-(trifluoromethyl)phenyl]ethyl]-28-cyclohexyl-21-isobutyl-7,10,13,16,22,26,29-heptamethyl-18-[(1S)-1-methylpropyl]-25-(piperidine-1-carbonyl)-9-(propoxymethyl)spiro[1,4,7,10,13,16,19,22,26,29,32-undecazabicyclo[32.3.0]heptatriacontane-31,1′-cyclopentane]-2,5,8,11,14,17,20,23,27,30,33-undecone] ([NMeL]I[Sar][Sar][NMeS](Propyl)[Sar][hPhe(3-Cl-4-CF3)]P[Ac5c][NMeChg][NMeD]-Piperidide; lactam N-11) is 50 to 100 nM; for `CC[C@H](C)[C@@H]1NC(=O)[C@H](CC(C)C)N(C)C(=O)C[C@@H](C(=O)N2CCCCC2)N(C)C(=O)[C@H](C2CCCCC2)N(C)C(=O)C2(CCCC2)NC(=O)[C@@H]2C[C@@H](OCC(F)F)CN2C(=O)[C@H](CCc2ccc(C(F)(F)F)c(Cl)c2)NC(=O)CN(C)C(=O)[C@H](CC2CCCCC2)N(C)C(=O)CN(C)C(=O)CN(C)C1=O` [Compound 2119] ([NMeL]I[Sar][Sar][NMeCha][Sar][hPhe(3-Cl-4-CF3)][Hyp](Ethyl(2,2-F2))[Ac5c][NMeChg][NMeD]-Piperidide; lactam N-11) it is 20 to 50 nM; for `CC[C@H](C)[C@@H]1NC(=O)[C@H](CC(C)C)N(C)C(=O)C[C@@H](C(=O)N2CCCCC2)N(C)C(=O)[C@H](C2CCCC2)N(C)C(=O)C2(CCCC2)NC(=O)[C@@H]2CCCN2C(=O)[C@H](CCc2ccc(OC(F)(F)F)c(Cl)c2)NC(=O)CN(C)C(=O)[C@H](CC2CCCCC2)N(C)C(=O)[C@@H]2CCN2C(=O)[C@H](C)N(C)C1=O` [Compound 2057] ([NMeL]I[NMeA][Aze][NMeCha][Sar][X88]P[Ac5c][NMeGly(cPent)][NMeD]-Piperidide; lactam N-11) it is 50 to 100 nM. In turn, `CC[C@H](C)[C@@H]1NC(=O)[C@H](CC(C)C)N(C)C(=O)C[C@@H](C(=O)N2CCCCC2)N(C)C(=O)[C@H]([C@@H](C)CC)N(C)C(=O)C2(CCCC2)NC(=O)[C@@H]2CCCN2C(=O)[C@H](CCc2ccc(C(F)(F)F)c(Cl)c2)NC(=O)CN(C)C(=O)[C@H](C2CCCC2)N(C)C(=O)[C@@H]2CCN2C(=O)[C@H](C)N(C)C1=O` [Compound 807] ([NMeL]I[NMeA][Aze][NMeGly(cPent)][Sar][hPhe(3-Cl-4-CF3)]P[Ac5c][NMeI][NMeD]-Piperidide; lactam N-11) showed an IC50 of 20 to 50 nM.

These data come from patent US12371454B2, “Cyclic peptide compound having Kras inhibitory action” (priority 2019, dated 2025).
